Measured values as given in patent US12077503B2, “Substituted cyclic amides and their use as herbicides” (FMC CORPORATION, priority 2015, dated 2024).

Columns and labels:
Type in all cases: in vivo
[1] = test system: redroot pigweed (Amaranthus retroflexus); test: Test G Post-Emergence Protocol; settings: Amaranthus retroflexus, post-emergence, 312 h, read-out: Pigweed, Redroot damage rating
Summary of the method: (§1)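 A glasshouse post-emergence test: 8-day-old plants sprayed at 15.625, 62.5 or 250 g/ha, then grown at 24/16 °C day/night with 14 h light and 65% humidity. Damage rated 13 days later, 0–100.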

corn (Zea mays) [2] = test: Test G Post-Emergence Protocol; settings: Zea mays, post-emergence, 312 h, read-out: Corn damage rating
Summary of the method: as §1

[3] = test system: ivy-leaved morning glory (Ipomoea hederacea); test: Test G Post-Emergence Protocol; settings: Ipomoea, post-emergence, 312 h, read-out: Morningglory, Ivy-leaved damage rating
Summary of the method: as §1

[4] = test system: barnyardgrass (Echinochloa crus-galli); test: Test G Post-Emergence Protocol; settings: Echinochloa crus-galli, post-emergence, 312 h, read-out: Barnyardgrass damage rating
Summary of the method: as §1

[5] = test system: velvetleaf (Abutilon theophrasti); test: Test G Post-Emergence Protocol; settings: Abutilon theophrasti, post-emergence, 312 h, read-out: Velvetleaf damage rating
Summary of the method: as §1

[6] = test system: giant foxtail (Setaria faberi); test: Test G Post-Emergence Protocol; settings: Setaria faberi, post-emergence, 312 h, read-out: Foxtail, Giant damage rating
Summary of the method: as §1

[7] = test system: redroot pigweed (Amaranthus retroflexus); test: Test G Pre-Emergence Protocol; settings: Amaranthus retroflexus, pre-emergence, 312 h, evaluated after 13 days
Summary of the method: (§2)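 Scores are visual damage ratings from 0 (no damage) to 100 (total plant kill), taken 13 days after treatment. Compound was sprayed one day post-sowing at 15.625, 62.5 or 250 g/ha in 50:50 acetone/water with 0.5% Tween 20.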

corn (Zea mays) [8] = test: Test G Pre-Emergence Protocol; settings: Zea mays, pre-emergence, 312 h, evaluated after 13 days
Summary of the method: as §2

[9] = test system: ivy-leaved morning glory (Ipomoea hederacea); test: Test G Pre-Emergence Protocol; settings: Ipomoea, pre-emergence, 312 h, evaluated after 13 days
Summary of the method: as §2

[10] = test system: barnyardgrass (Echinochloa crus-galli); test: Test G Pre-Emergence Protocol; settings: Echinochloa crus-galli, pre-emergence, 312 h, evaluated after 13 days
Summary of the method: as §2

[11] = test system: velvetleaf (Abutilon theophrasti); test: Test G Pre-Emergence Protocol; settings: Abutilon theophrasti, pre-emergence, 312 h, evaluated after 13 days
Summary of the method: as §2

[12] = test system: giant foxtail (Setaria faberi); test: Test G Pre-Emergence Protocol; settings: Setaria faberi, pre-emergence, 312 h, evaluated after 13 days
Summary of the method: as §2

[13] = 15.625 g ai/ha, evaluated after 13 days (100=total damage to plant; 0=no damage to plant)
[14] = 62.5 g ai/ha, evaluated after 13 days, 100=total damage to plant, 0=no damage to plant
[15] = 250 g ai/ha, evaluated after 13 days, 100=total damage to plant, 0=no damage to plant

Cc1cc(C2CN(C)C(=O)C2C(=O)Nc2cccc(F)c2F)cc(C(F)(F)F)c1 (stereo not drawn) [Compound 1723]
pest or weed control at 15.625 g/ha [1, 13]: 20% | pest or weed control at 62.5 g/ha [1, 14]: 20% | pest or weed control at 250 g/ha [1, 15]: 30% | plant injury at 15.625 g/ha (corn (Zea mays) [2]; [13]): 30% | plant injury at 62.5 g/ha (corn (Zea mays) [2]; [14]): 60% | plant injury at 250 g/ha (corn (Zea mays) [2]; [15]): 70% | pest or weed control at 15.625 g/ha [3, 13]: 30% | pest or weed control at 62.5 g/ha [3, 14]: 70% | pest or weed control at 250 g/ha [3, 15]: 40% | pest or weed control at 15.625 g/ha [4, 13]: 30% | pest or weed control at 62.5 g/ha [4, 14]: 80% | pest or weed control at 250 g/ha [4, 15]: 80% | pest or weed control at 15.625 g/ha [5, 13]: 10% | pest or weed control at 62.5 g/ha [5, 14]: 10% | pest or weed control at 250 g/ha [5, 15]: 20% | pest or weed control at 15.625 g/ha [6, 13]: 70% | pest or weed control at 62.5 g/ha [6, 14]: 80% | pest or weed control at 250 g/ha [6, 15]: 80% | pest or weed control at 15.625 g/ha ([7]; 15.625 g ai/ha, read-out: Pigweed, Redroot damage rating (100=total damage to plant; 0=no damage to plant)): 0% | pest or weed control at 62.5 g/ha ([7]; 62.5 g ai/ha, 100=total damage to plant, 0=no damage to plant, read-out: Pigweed, Redroot damage rating): 0% | pest or weed control at 250 g/ha ([7]; 250 g ai/ha, read-out: Pigweed, Redroot damage rating (100=total damage to plant; 0=no damage to plant)): 30% | plant injury at 15.625 g/ha (corn (Zea mays) [8]; 15.625 g ai/ha, read-out: Corn damage rating (100=total damage to plant; 0=no damage to plant)): 0% | plant injury at 62.5 g/ha (corn (Zea mays) [8]; 62.5 g ai/ha, 100=total damage to plant, 0=no damage to plant, read-out: Corn damage rating): 0% | plant injury at 250 g/ha (corn (Zea mays) [8]; 250 g ai/ha, read-out: Corn damage rating (100=total damage to plant; 0=no damage to plant)): 60% | pest or weed control at 15.625 g/ha ([9]; 15.625 g ai/ha, read-out: Morningglory, Ivy-leaved damage rating (100=total damage to plant; 0=no damage to plant)): 0% | pest or weed control at 62.5 g/ha ([9]; 62.5 g ai/ha, 100=total damage to plant, 0=no damage to plant, read-out: Morningglory, Ivy-leaved damage rating): 0% | pest or weed control at 250 g/ha ([9]; 250 g ai/ha, read-out: Morningglory, Ivy-leaved damage rating (100=total damage to plant; 0=no damage to plant)): 10% | pest or weed control at 15.625 g/ha ([10]; 15.625 g ai/ha, read-out: Barnyardgrass damage rating (100=total damage to plant; 0=no damage to plant)): 10% | pest or weed control at 62.5 g/ha ([10]; 62.5 g ai/ha, 100=total damage to plant, 0=no damage to plant, read-out: Barnyardgrass damage rating): 40% | pest or weed control at 250 g/ha ([10]; 250 g ai/ha, read-out: Barnyardgrass damage rating (100=total damage to plant; 0=no damage to plant)): 90% | pest or weed control at 15.625 g/ha ([11]; 15.625 g ai/ha, read-out: Velvetleaf damage rating (100=total damage to plant; 0=no damage to plant)): 0% | pest or weed control at 62.5 g/ha ([11]; 62.5 g ai/ha, 100=total damage to plant, 0=no damage to plant, read-out: Velvetleaf damage rating): 0% | pest or weed control at 250 g/ha ([11]; 250 g ai/ha, read-out: Velvetleaf damage rating (100=total damage to plant; 0=no damage to plant)): 10% | pest or weed control at 15.625 g/ha ([12]; 15.625 g ai/ha, read-out: Foxtail, Giant damage rating (100=total damage to plant; 0=no damage to plant)): 60% | pest or weed control at 62.5 g/ha ([12]; 62.5 g ai/ha, 100=total damage to plant, 0=no damage to plant, read-out: Foxtail, Giant damage rating): 70% | pest or weed control at 250 g/ha ([12]; 250 g ai/ha, read-out: Foxtail, Giant damage rating (100=total damage to plant; 0=no damage to plant)): 90%
